The values that follow come from article PMC12607897, “Inhibition of HIV-1 replication by primer RNA packaging inhibitors” (mBio, 2025).

Data set [1] deals with T1, mLysRS:IN interaction (human mLysRS, HIV-1 IN) (UniProt P12497+Q15046).
T1 construct: made in house
The data set can be described thus: HTRF assay of mLysRS:IN interaction. The data set is classed as binding, human / HIV-1. As to conditions: for effect on the mLysRS:IN interaction in the HTRF assay: dihydropyridine derivatives, Fig. S2. Here is the method:
Fig 1 Determination of the half-maximal inhibitory concentration (IC50) of the drugs in the mLysRS:IN binding assay. The binding of mLysRS to IN (red) or p38 (blue) was monitored in the HTRF assay in the presence of increasing drug concentrations (9–1,000 µM). The experimental values (symbols) were fitted (curves) to the equation Y = Ymin + {(Ymax − Ymin)/[1 + (X/IC50)^n]}, where n is the Hill coefficient. […] Proteins were isolated as described previously ([4]). Several batches of IN were used throughout this study. […] The molecules are dissolved in DMSO at a final concentration of 10 mM. After a 1 h incubation on ice, antibodies (Cisbio) directed to the His-tag and conjugated with Eu^3+ cryptate (Cisbio #61HISKLB) and the HA-tag conjugated with XL665 (Cisbio #610HAXLB) were added, and incubation was continued for 30 min. After the addition of 50 mM KF, fluorescence of Eu^3+ cryptate and of XL665 was recorded at 620 nm (I620) and 665 nm (I665), respectively, following excitation of Eu^3+ cryptate at 317 nm, in an Infinite M1000 PRO microplate reader (TECAN). The results were expressed as the ratio of I665/I620.
A general note: Time-resolved FRET reads energy transfer from a long-lived donor to a nearby acceptor.

Data set [2] has as its system MT4 cells. Nature of the data set: cell toxicity by MTT assay. The data set is classed as cell-based, human. The note with it: MTT assay, 1, 3.3 or 10 µM. The protocol: (§1) Fig 3 Effect of the inhibitors on HIV-1 replication and cell toxicity. MT4 cells were infected with NL4-3-GFP virus. Two days after infection, inhibitors were added to the culture medium at final concentrations of 1, 3.3, or 10 µM. The final concentration of DMSO was 0.1%. Five days after infection, GFP expression was quantified by flow cytometry, and cell viability was determined by the MTT assay. NInf corresponds to non-infected cells. Six independent experiments were performed, and standard deviations are shown. A Student t-test was used to determine statistical significance compared with the control experiment with DMSO (*: P < 0.001; **: P < 0.0001).
Replication of the NL4-3 virus was determined either by the ELISA technique or in HeLa-P4 cells by the CPRG method as described previously ([29]). These are HeLa CD4 LTR-lacZ cells in which the expression of lacZ is induced by the HIV transactivator Tat, allowing precise quantification of the infectivity of HIV-1. The viral titer was determined by quantifying β-galactosidase activity in HeLa-P4 lysates in a colorimetric assay based on the cleavage of chlorophenol red-β-D-galactopyranoside (CPRG) by β-galactosidase. The cytotoxicity is evaluated by the MTT assay.

The target in data set [3] is mLysRS (Homo sapiens, UniProt Q15046). The data set can be described thus: tRNA aminoacylation assay. The data set is classed as biochemical. As to conditions: drug added up to 1 mM. The protocol:
Initial rates of tRNA aminoacylation were measured at 25°C in 0.1 mL of 20 mM Imidazole-HCl buffer (pH 7.5), 100 mM KCl, 0.5 mM DTT, 12 mM MgCl2, 2 mM ATP, 180 µM ^14C-labeled lysine (NEN; 16.66 Ci/mol), and saturating amounts of global yeast tRNA ([30]). The incubation mixture contained catalytic amounts (2 nM) of mLysRS appropriately diluted in 10 mM Tris-HCl (pH 7.5), 10 mM 2-mercaptoethanol, containing bovine serum albumin at 4 mg/mL. Inhibitors were added at final concentrations ranging from 3.9 to 1,000 µM. One unit of activity is the amount of enzyme producing 1 nmol of lysine-tRNA^Lys/min, at 25°C.
Fig. S5. Effect of inhibitors on mLysRS activity. The tRNA-aminoacylation activity of mLysRS
was determined in the presence of increasing concentrations of the drugs. Two independent
experiments were performed and standard deviations are shown.
Fig. 6. Raw data of quantification of minus-strand strong stop viral DNA and viral RNA by
digital PCR from viruses recovered after 72 h incubation in the presence of 10 µM of the drugs.

Data set [4] has as its system HIV-1 NLENG1-IRES-GFP (NL4-3-GFP) virus in MT4 cells. Nature of the data set: ex vivo HIV-1 replication assay, GFP expression by flow cytometry in infected MT4 cells (multiple cycles). Type of data set: cell-based. As to conditions: for GFP fluorescence, % of the value observed when DMSO was added alone: drug 10 µM, added 36–48 h after infection, read 72 h later. Here is the method: To test this hypothesis, azelastine, lacidipine, and cilnidipine were used in an ex vivo assay to determine their effect on HIV-1 proliferation. MT4 cells were infected with NLENG1-IRES-GFP, a virus that allows for multiple cycles of infection, and the molecules were added to the medium 36–48 h after infection, before the completion of the first round of viral infection; 72 h after the drugs were added, when two rounds of HIV-1 infection were underway, the level of GFP fluorescence was determined by flow cytometry, as a marker of HIV-1 infection (Fig. 3, left panel). HIV-1 replication was inhibited in a dose-dependent manner. […]. […] At the same time, no drug toxicity was observed, as determined by the MTT assay (Fig. 3, right panel). […] The selectivity index (SI) ([24]) of the three drugs, defined as the ratio of 50% cytotoxic concentration (CC50; >20 µM) to 50% inhibitory concentration (IC50; ~5 µM), >4.
as §1
MT4 cell line ([26]) was maintained in RPMI 1640. HEK293T and HeLa-P4 cells ([27]) were maintained in Dulbecco’s modified Eagle medium (DMEM). All media were supplemented with Glutamax and with 10% heat-inactivated fetal calf serum (Hyclone) and 1% penicillin/streptomycin (100 units/mL) (Gibco). All media were purchased from Gibco (Life Technologies Co.). All cell lines used here were incubated at 37 °C, under 5% CO2 atmosphere. HIV-1 stocks were prepared by calcium phosphate-mediated transfection of HEK293T cells, as previously described ([22]), with shuttle vector plasmids encoding HIV-1 NL4-3 (GenBank: AF324493.1) or NLENG1-IRES-GFP ([28]). The latter vector comes from the HIV NL4-3 strain and contains a gfp-IRES-nef cassette at the nef locus. […].
For NL4-3-GFP vectors, viral infection is followed by GFP expression (i.e., the percentage and geometric mean fluorescence intensity [MFI] of GFP^+ cells). Infectivity was estimated by flow cytometry using a FACS Celesta flow cytometer (BD Biosciences). Toxicity is also assessed by flow cytometry (side and forward scatter).
In general terms: Flow cytometry measures light scatter and fluorescence of single cells or particles in a stream.

The subject of data set [5] is HIV-1 NL4-3 virus particles. Nature of the data set: digital PCR / RT-dPCR of minus-strand strong stop cDNA and viral RNA in particles. The data set is classed as cell-based. The note with it: 10 µM drug, 72 and 96 h after infection. From the text: We used digital RT-PCR and digital PCR to determine the viral mRNA and minus-strand strong stop viral cDNA content of the particles (Fig. 7; Fig. S6). The amount of early viral cDNA produced in the HIV-1 particles is a measure of the efficiency of the initiation step of reverse transcription, which requires the packaging of tRNA3^Lys at the budding step, the primer for cDNA synthesis.
Fig 7 Effect of drugs on viral synthesis of minus-strand strong stop cDNA. Viruses were harvested from the culture medium after 72 (red) or 96 h (blue) of infection of MT4 cells with NL4-3 viruses. Minus-strand strong stop viral DNA and viral RNA (vRNA) were quantified by digital PCR and RT-dPCR, respectively. Viruses were harvested from cultures grown in the presence of 10 µM of azelastine (Aze), lacidipine (Lac), or cilnidipine (Cil), or H2O or DMSO as controls. Values and the associated standard deviations (n = 3) are expressed as the ratios of the values obtained for the H2O or DMSO controls. […].
MT4 cells (2 × 10^6 cells) were infected with the NL4-3 viruses. After 4–5 h of infection at 37°C, cells were twice washed with PBS, incubated 5 min at 37°C in 0.25% trypsin-EDTA solution (Gibco) to eliminate viruses remaining in the medium, incubated 5 min at 37°C in complete RPMI medium, twice washed with PBS, resuspended in RPMI medium at a cell density of 200 × 10^3 cells/mL and incubated with 10 µM of azelastine (25 mM stock solution in H20), or lacidipine and cilnidipine (25 mM stock solution in DMSO). A second aliquot of the inhibitors was added to the culture medium 48 h after infection. […] All RNA and DNA quantifications were performed by digital PCR and RT-qPCR on a QIAcuity instrument (QIAGEN) using 26K 24-well nanoplates and the QIAcuity Probe PCR and One-Step Viral RT-PCR kits. Primers and probes were 5′-[…], 5′-[…], and 5′-[…] for the quantification of minus-strand strong-stop cDNA, and 5′-[…], 5′-[…], and 5′-[…] CGT for viral RNA quantification.

Where [6] appears, read: HTRF, mLysRS 1.5 nM dimer, IN 25 nM dimer, read-out: half-maximal inhibitory concentration (IC50) in the mLysRS:IN assay.

Read-outs that look alike come from different tables or passages of the source. Some results are limits rather than exact numbers.

T1 sequence (Q15046 other isoform, or with tags, fused parts or gaps, other chains not shown): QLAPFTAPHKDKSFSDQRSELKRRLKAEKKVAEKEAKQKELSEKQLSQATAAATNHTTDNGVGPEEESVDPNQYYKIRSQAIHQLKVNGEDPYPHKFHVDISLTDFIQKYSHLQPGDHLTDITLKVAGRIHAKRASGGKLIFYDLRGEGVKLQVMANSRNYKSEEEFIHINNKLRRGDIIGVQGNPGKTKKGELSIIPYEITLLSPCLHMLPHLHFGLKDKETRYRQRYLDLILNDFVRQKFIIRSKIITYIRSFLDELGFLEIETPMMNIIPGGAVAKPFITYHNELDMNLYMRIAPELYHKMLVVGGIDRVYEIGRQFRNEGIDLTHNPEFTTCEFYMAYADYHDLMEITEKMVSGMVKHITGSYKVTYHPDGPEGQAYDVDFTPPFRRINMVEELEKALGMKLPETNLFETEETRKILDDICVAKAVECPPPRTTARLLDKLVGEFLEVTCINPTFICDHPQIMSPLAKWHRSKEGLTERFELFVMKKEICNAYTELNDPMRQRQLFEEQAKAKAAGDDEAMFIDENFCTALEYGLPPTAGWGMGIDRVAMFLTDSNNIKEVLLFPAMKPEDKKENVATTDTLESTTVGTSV
Chain of mLysRS (Q15046 31-625 isoform Q15046-2): as the sequence (Q15046 other isoform, or with tags, fused parts or gaps, other chains not shown) above

As for `CCOC(=O)C1=C(C)NC(C)=C(C(=O)OCC)C1` [Diludine], in data set [1], the “effect on the mLysRS:IN interaction in the HTRF assay” value (shortened to “effect on the mLysRS:IN interaction”) is on record as “did not significantly alter”.

On to `COC(=O)C1=C(C)NC(C)=C(C(=O)OC(C)(C)CN(C)CCC(c2ccccc2)c2ccccc2)C1c1cccc([N+](=O)[O-])c1` (centres unmarked) [Lercanidipine], for which, in data set [2], the “cell toxicity” value is recorded as “higher cellular toxicity”.

Take `CC1=C(C(=O)OC(C)C)C(c2cccc([N+](=O)[O-])c2)C(C(=O)OC2CN(C(c3ccccc3)c3ccccc3)C2)=C(N)N1` (centres unmarked) [azelnidipine]: the “cell toxicity” value in data set [2] is recorded as “higher cellular toxicity”.

On to `CCCC(=O)OCOC(=O)C1=C(C)NC(C)=C(C(=O)OC)C1c1cccc(Cl)c1Cl` (centres unmarked) [celvidipine], for which the “effect on the mLysRS:IN interaction” value in data set [1] was “did not significantly alter”.

In the case of `COCCOC(=O)C1=C(C)NC(C)=C(C(=O)OC/C=C/c2ccccc2)C1c1cccc([N+](=O)[O-])c1` (centres unmarked) [cilnidipine], the “inhibition of Lysyl-tRNA^Lys synthesis” value in data set [3] is listed as “did not inhibit”. Moreover, the “GFP fluorescence, % of the value observed when DMSO was added alone” value in data set [4] was 18.9%. For the same molecule, in data set [5], the “minus-strand strong stop cDNA in viruses, normalized to viral RNA” value is “significantly reduced”. Further, in data set [1] (setting [6]), the IC50 stood at 310 ± 30 µM.

Consider `CCOC(=O)C1=C(C)NC(C)=C(C(=O)OC)C1c1cccc(Cl)c1Cl` (centres unmarked) [felodipine], for which the “effect on the mLysRS:IN interaction” value in data set [1] was “did not significantly alter”.

`COC(=O)C1=C(C)NC(C)=C(C(=O)OC(C)C)C1c1cccc2nonc12` (centres unmarked) [isradipine]: in data set [1], the IC50 was greater than 500 µM.

Turning to `CCOC(=O)C1=C(C)NC(C)=C(C(=O)OCC)C1c1ccccc1/C=C/C(=O)OC(C)(C)C` [lacidipine], the “inhibition of Lysyl-tRNA^Lys synthesis” value in data set [3] stood at 30%. Further, the “GFP fluorescence, % of the value observed when DMSO was added alone” value in data set [4] came to 27.2%. Besides, the “minus-strand strong stop cDNA in viruses, normalized to viral RNA” value in data set [5] is “significantly reduced”. In data set [1] (setting [6]), the IC50 stood at 64 ± 8 µM.

Take `CCOC(=O)C1=C(COCCN)NC(C)=C(C(=O)OC)[C@@H]1c1ccccc1Cl` [levamlodipine]: the “effect on the mLysRS:IN interaction” value in data set [1] was “did not significantly alter”.

Consider `COC(=O)C1=C(C)NC(C)=C(C(=O)OCCN(C)Cc2ccccc2)C1c1cccc([N+](=O)[O-])c1` (centres unmarked) [nicardipine], for which the IC50 in data set [1] was greater than 500 µM.

Take `COCCOC(=O)C1=C(C)NC(C)=C(C(=O)OC(C)C)C1c1cccc([N+](=O)[O-])c1` (centres unmarked) [nimodipine]: the “effect on the mLysRS:IN interaction” value in data set [1] is reported as “did not significantly alter”.

Take `COC(=O)C1=C(C)NC(C)=C(C(=O)OCC(C)C)C1c1ccccc1[N+](=O)[O-]` (centres unmarked) [nisoldipine]: the “inhibition of HIV-1 replication in the ex vivo assay” value in data set [4] (NL4-3-GFP, Fig. S3) is “did not inhibit”.

On to `CCOC(=O)C1=C(C)NC(C)=C(C(=O)OC)C1c1cccc([N+](=O)[O-])c1` (centres unmarked) [nitrendipine], for which the IC50 in data set [1] was greater than 500 µM.

`COC(=O)C1=C(C#N)NC(C)=C(C(=O)OC(C)C)C1c1cccc([N+](=O)[O-])c1` (centres unmarked) [nivaldipine]: the IC50 in data set [1] (setting [6]) was greater than 500 µM.
